Assay results: patent publication US4374843A, “2-Guanidino-4-heteroarylthiazoles” (Pfizer Inc., priority 1981, dated 1983)
Where a name gives a salt, the structure may show the parent alone.

molecular target: T1, H2 -receptor (Cavia porcellus, UniProt P47747); assay: Histamine-H2 antagonist activity in isolated guinea pig right atria; format: cell-based; conditions: histamine dose-response curve in presence and absence of antagonist, 32°, Krebs-Henseleit buffer pH 7.4
T1 construct: the heart removed and the right atria dissected free; from tissue; host or cells: isolated guinea pig right atria
Method: The histamine-H2 antagonist activity of compounds of the present invention was determined by the following procedure:
Guinea pigs are killed rapidly with a blow to the head, the heart removed and the right atria dissected free. Atria are suspended, isometrically, in a temperature-controlled (32°±2°) tissue bath (10 ml containing oxygenated (95% O2; 5% CO2) Krebs-Henseleit buffer (pH 7.4) and are allowed to stabilize approximately one hour during which time the tissue bath is flushed several times. Individual atrial contractions are followed with a force-displacement transducer connected to a cardiotachometer and Grass polygraph recorder. After obtaining a dose-response curve to histamine, the bath containing each atrium is flushed several times with fresh buffer and the atria re-equilibrated to basal rates. Following the return to basal rate, test compounds are added at selected final concentrations and the histamine dose-response curve is again determined in the presence of antagonist. Results are expressed as dose-ratios, the ratio of histamine concentrations required to produce one-half of maximal stimulation in the presence and absence of antagonist, and the apparent dissociation constant of the H2 -receptor antagonist pA2, is determined.

T1 sequence (P47747 whole entry): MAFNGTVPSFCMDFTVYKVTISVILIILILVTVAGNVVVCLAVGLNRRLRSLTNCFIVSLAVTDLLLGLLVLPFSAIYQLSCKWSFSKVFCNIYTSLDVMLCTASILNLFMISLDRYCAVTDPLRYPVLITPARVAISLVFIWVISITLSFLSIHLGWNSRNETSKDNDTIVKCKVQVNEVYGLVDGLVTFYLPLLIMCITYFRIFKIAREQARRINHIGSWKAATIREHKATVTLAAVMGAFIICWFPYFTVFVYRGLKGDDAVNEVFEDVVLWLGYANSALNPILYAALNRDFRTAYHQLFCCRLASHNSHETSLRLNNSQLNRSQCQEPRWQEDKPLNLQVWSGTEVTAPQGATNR

pA2 (apparent dissociation constant of the H2-receptor antagonist) | Compound
greater than 5.7 | Cc1nc(C)c(-c2csc(NC(=N)N)n2)[nH]1 [Example 45, 2-Guanidino-4-(2,4-dimethyl-4-imidazolyl)thiazole hydrobromide hemihydrate]

same assay, conditions: histamine dose-response curve in presence and absence of antagonist, 32°, Krebs-Henseleit buffer pH 7.4, read-out: pA2 (apparent dissociation constant of the H2-receptor antagonist) (converted)

Kb [nM] | Compound
< 2000 | Cc1ncc(-c2csc(N=C(N)N)n2)[nH]1 [Example 37, 2-Guanidino-4-(2-methyl-4-imidazolyl)thiazole]
< 2000 | CNc1nc(-c2csc(NC(=N)N)n2)c[nH]1 [Example 21, 2-Guanidino-4-(2-N-methylamino-4-imidazoyl)thiazole dihydrochloride]
< 2000 | CCNc1nc(-c2csc(NC(=N)N)n2)c[nH]1 [Example 22, 2-Guanidino-4-(2-N-ethylamino-4-imidazoyl)thiazole dihydrochloride]
< 2000 | CCCCNc1nc(-c2csc(NC(=N)N)n2)c[nH]1 [Example 25, 2-Guanidino-4-(2-N-n-butylamino-4-imidazoyl)thiazole dihydrochloride]
< 2000 | N=C(N)Nc1nc(-c2c[nH]c(NCCc3ccccc3)n2)cs1 [Example 27, 2-Guanidino-4-(2-N-phenethylamino-4-imidazoyl)thiazole dihydrochloride]
< 2000 | CC(=O)Nc1nc(-c2csc(NC(=N)N)n2)c[nH]1 [Example 28, 2-Guanidino-4-(2-N-acetamido-4-imidazoyl)thiazole]
< 2000 | N=C(N)Nc1nc(-c2c[nH]c(NCc3ccccc3)n2)cs1 [Example 26, 2-Guanidino-4-(2-N-benzylamino-4-imidazoyl)thiazole dihydrochloride]
< 2000 | CCCc1n[nH]c(-c2csc(NC(=N)N)n2)n1 [Example 15, 2-Guanidino-4-(3-propyl-5-1,2,4-triazolyl)thiazole hemihydrate]
< 2000 | N=C(N)Nc1nc(-c2c[nH]c(Nc3ccccc3)n2)cs1 [Example 46, 2-Guanidino-4-(2-N-phenylamino-4-imidazolyl)thiazole]
< 2000 | N=C(N)Nc1nc(-c2cscn2)cs1 [Example 5, 2-Guanidino-4-(4-thiazolyl)thiazole]
< 2000 | CNc1nc(-c2csc(NC(=N)N)n2)cs1 [Example 6, 2-Guanidino-4-(2-N-methylamino-4-thiazoyl)thiazole]
< 2000 | N=C(N)Nc1nc(-c2csc(N)n2)cs1 [Example 4, 2-Guanidino-4-(2-amino-4-thiazolyl)thiazole dihydrobromide]
< 2000 | CC(=O)Nc1nc(-c2csc(NC(=N)N)n2)cs1 [Example 7, 2-Guanidino-4-(2-N-acetylamino-4-thiazoyl)thiazole]
< 2000 | CCc1n[nH]c(-c2csc(NC(=N)N)n2)n1 [Example 17, 2-Guanidino-4-(3-ethyl-5-1,24-triazolyl)thiazole]
< 2000 | CC(C)Nc1nc(-c2csc(NC(=N)N)n2)c[nH]1 [Example 24, 2-Guanidino-4-(2-N-i-propylamino-4-imidazoyl)thiazole dihydrochloride]
< 2000 | CCCNc1nc(-c2csc(NC(=N)N)n2)c[nH]1 [Example 23, 2-(Guanidino-4-(2-N-n-propylamino-4-imidazoyl)thiazoledihydrochloride]
< 2000 | N=C(N)Nc1nc(-c2c[nH]c(CO)n2)cs1 [Example 50, 2-Guanidino-4-(2-hydroxymethyl-4-imidazolyl)thiazole hydrobromide]
< 2000 | Cc1nc[nH]c1-c1csc(NC(=N)N)n1 [Example 41, 2-Guanidino-4-(4-methyl-5-imidazolyl)thiazole hydrobromide]

tested on: Heidenhain pouch dogs; assay: Gastric acid antisecretory activity in pentagastrin-stimulated Heidenhain pouch dogs; format: in vivo, dog; conditions: Canis lupus familiaris, iv, 1.5 h; 1 mg/kg intravenously, 90 min after start of pentagastrin infusion; lowest acid output after drug vs mean acid output immediately before drug; conscious fasted dogs; read-out: inhibited gastric acid secretion
Method: The gastric acid antisecretory activity of compounds of the present invention was determined in overnight fasted, conscious Heidenhain pouch dogs. Pentagastrin (Pentavlon-Ayerst was used to stimulate acid output by continuous infusion into a superficial leg vein at doses earlier determined to stimulate near maximal acid output from the gastric pouch. Gastric juice was collected at 30 minute intervals following the start of a pentagastrin infusion and measured to the nearest 0.1 ml. Ten collections were taken for each dog during an experiment. Acid concentration was determined by titrating 1.0 ml of gastric juice to pH 7.4 with 0.1 N sodium hydroxide using an Autoburette and a glass electrode pH meter (Radiometer).
Drug or vehicle was given intraveneously 90 minutes following the start of the pentagastrin infusion, at a dose of 1 mg/kg. Gastric acid antisecretory effects were calculated by comparing the lowest acid output after drug administration with the mean acid output immediately before drug.

Compound | inhibition at 1 mg/kg [%]
Cc1ncc(-c2csc(N=C(N)N)n2)[nH]1 [Example 37, 2-Guanidino-4-(2-methyl-4-imidazolyl)thiazole] | ≥ 15
CNc1nc(-c2csc(NC(=N)N)n2)c[nH]1 [Example 21, 2-Guanidino-4-(2-N-methylamino-4-imidazoyl)thiazole dihydrochloride] | ≥ 15
CCNc1nc(-c2csc(NC(=N)N)n2)c[nH]1 [Example 22, 2-Guanidino-4-(2-N-ethylamino-4-imidazoyl)thiazole dihydrochloride] | ≥ 15
N=C(N)Nc1nc(-c2c[nH]cn2)cs1 [Example 31, 2-Guanidino-4-(4-imidazoyl)thiazole hydrobromide] | ≥ 15
CCCCNc1nc(-c2csc(NC(=N)N)n2)c[nH]1 [Example 25, 2-Guanidino-4-(2-N-n-butylamino-4-imidazoyl)thiazole dihydrochloride] | ≥ 15
N=C(N)Nc1nc(-c2c[nH]c(N)n2)cs1 [Example 20, 2-Guanidino-4-(2-amino-4-imidazolyl)thiazole] | ≥ 15
Cc1n[nH]c(-c2csc(NC(=N)N)n2)n1 [Example 13, 2-Guanidino-4-(3-methyl-5-1,2,4-triazolyl)thiazole hemihydrate] | ≥ 15
N=C(N)Nc1nc(-c2c[nH]c(NCCc3ccccc3)n2)cs1 [Example 27, 2-Guanidino-4-(2-N-phenethylamino-4-imidazoyl)thiazole dihydrochloride] | ≥ 15
CC(=O)Nc1nc(-c2csc(NC(=N)N)n2)c[nH]1 [Example 28, 2-Guanidino-4-(2-N-acetamido-4-imidazoyl)thiazole] | ≥ 15
N=C(N)Nc1nc(-c2c[nH]c(NCc3ccccc3)n2)cs1 [Example 26, 2-Guanidino-4-(2-N-benzylamino-4-imidazoyl)thiazole dihydrochloride] | ≥ 15
CCCc1n[nH]c(-c2csc(NC(=N)N)n2)n1 [Example 15, 2-Guanidino-4-(3-propyl-5-1,2,4-triazolyl)thiazole hemihydrate] | ≥ 15
N=C(N)Nc1nc(-c2cscn2)cs1 [Example 5, 2-Guanidino-4-(4-thiazolyl)thiazole] | ≥ 15
CNc1nc(-c2csc(NC(=N)N)n2)cs1 [Example 6, 2-Guanidino-4-(2-N-methylamino-4-thiazoyl)thiazole] | ≥ 15
N=C(N)Nc1nc(-c2csc(N)n2)cs1 [Example 4, 2-Guanidino-4-(2-amino-4-thiazolyl)thiazole dihydrobromide] | ≥ 15
CC(=O)Nc1nc(-c2csc(NC(=N)N)n2)cs1 [Example 7, 2-Guanidino-4-(2-N-acetylamino-4-thiazoyl)thiazole] | ≥ 15
Cc1nc(C)c(-c2csc(NC(=N)N)n2)[nH]1 [Example 45, 2-Guanidino-4-(2,4-dimethyl-4-imidazolyl)thiazole hydrobromide hemihydrate] | ≥ 15
CCc1n[nH]c(-c2csc(NC(=N)N)n2)n1 [Example 17, 2-Guanidino-4-(3-ethyl-5-1,24-triazolyl)thiazole] | ≥ 15
CC(C)Nc1nc(-c2csc(NC(=N)N)n2)c[nH]1 [Example 24, 2-Guanidino-4-(2-N-i-propylamino-4-imidazoyl)thiazole dihydrochloride] | ≥ 15
CCCNc1nc(-c2csc(NC(=N)N)n2)c[nH]1 [Example 23, 2-(Guanidino-4-(2-N-n-propylamino-4-imidazoyl)thiazoledihydrochloride] | ≥ 15
N=C(N)Nc1nc(-c2nc(N)n[nH]2)cs1 [Example 11, 2-Guanidino-4-(3-amino-5-1,2,4-triazolyl)thiazole] | ≥ 15
N=C(N)Nc1nc(-c2c[nH]c(CO)n2)cs1 [Example 50, 2-Guanidino-4-(2-hydroxymethyl-4-imidazolyl)thiazole hydrobromide] | ≥ 15
Cc1nc[nH]c1-c1csc(NC(=N)N)n1 [Example 41, 2-Guanidino-4-(4-methyl-5-imidazolyl)thiazole hydrobromide] | ≥ 15
